Laboratory results taken from patent US4243408A, “Herbicidal N-triazolylmethyl-substituted alpha-haloacetanilide” (Chevron Research Company, priority 1978, dated 1981).

Key:
Format in all cases: in vivo
[1] = system: Crabgrass (Digitaria sanguinalis); assay: Pre-Emergent Test, herbicidal effectiveness; details: pre-emergence, 504 h, 33 micrograms per cm^2, 3 weeks, 0-to-100 scale, read-out: Herbicidal Effectiveness, % Control Pre, C
How it was run: (§1)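 Herbicidal activity before emergence: spray of an aqueous dilution of an acetone/surfactant compound solution onto seeded soil (33 micrograms/cm^2). Plants grown in the greenhouse; damage judged by physiological observation, with 0 representing no phytotoxicity and 100 complete kill.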

[2] = system: Mustard (Brassica arvensis); assay: Pre-Emergent Test, herbicidal effectiveness; details: pre-emergence, 504 h, 33 micrograms per cm^2, 3 weeks, 0-to-100 scale
How it was run: as §1

Wild Oats (Avena fatua) [3] = assay: Pre-Emergent Test, herbicidal effectiveness; details: pre-emergence, 504 h, 33 micrograms per cm^2, 3 weeks, 0-to-100 scale, read-out: Herbicidal Effectiveness, % Control Pre, O
How it was run: as §1

Watergrass (Echinochloa) [4] = assay: Pre-Emergent Test, herbicidal effectiveness; details: pre-emergence, 504 h, 33 micrograms per cm^2, 3 weeks, 0-to-100 scale, read-out: Herbicidal Effectiveness, % Control Pre, W
How it was run: as §1

[5] = system: Pigweed (Amaranthus retroflexus); assay: Pre-Emergent Test, herbicidal effectiveness; details: pre-emergence, 504 h, 33 micrograms per cm^2, 3 weeks, 0-to-100 scale, read-out: Herbicidal Effectiveness, % Control Pre, P
How it was run: as §1

[6] = system: Lambsquarter (Chenopodium album); assay: Pre-Emergent Test, herbicidal effectiveness; details: pre-emergence, 504 h, 33 micrograms per cm^2, 3 weeks, 0-to-100 scale, read-out: Herbicidal Effectiveness, % Control Pre, L
How it was run: as §1

[7] = system: Crabgrass (Digitaria sanguinalis); assay: Post-Emergent Test, herbicidal effectiveness; details: post-emergence, 504 h, 33 micrograms per cm^2, 3 weeks, 0-to-100 scale, read-out: Herbicidal Effectiveness, % Control Post, C
How it was run: (§2)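 24-d-old plants, spray 33 micrograms/cm^2 (5000 ppm, acetone/surfactant/water), greenhouse. 3-wk 0–100 score, 100 = kill.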

[8] = system: Mustard (Brassica arvensis); assay: Post-Emergent Test, herbicidal effectiveness; details: post-emergence, 504 h, 33 micrograms per cm^2, 3 weeks, 0-to-100 scale
How it was run: as §2

Wild Oats (Avena fatua) [9] = assay: Post-Emergent Test, herbicidal effectiveness; details: post-emergence, 504 h, 33 micrograms per cm^2, 3 weeks, 0-to-100 scale, read-out: Herbicidal Effectiveness, % Control Post, O
How it was run: as §2

Watergrass (Echinochloa) [10] = assay: Post-Emergent Test, herbicidal effectiveness; details: post-emergence, 504 h, 33 micrograms per cm^2, 3 weeks, 0-to-100 scale, read-out: Herbicidal Effectiveness, % Control Post, W
How it was run: as §2

[11] = system: Pigweed (Amaranthus retroflexus); assay: Post-Emergent Test, herbicidal effectiveness; details: post-emergence, 504 h, 33 micrograms per cm^2, 3 weeks, 0-to-100 scale, read-out: Herbicidal Effectiveness, % Control Post, P
How it was run: as §2

[12] = system: Lambsquarter (Chenopodium album); assay: Post-Emergent Test, herbicidal effectiveness; details: post-emergence, 504 h, 33 micrograms per cm^2, 3 weeks, 0-to-100 scale, read-out: Herbicidal Effectiveness, % Control Post, L
How it was run: as §2

SMILES	pest or weed control at 33 µg/cm2 [1] [%]	pest or weed control at 33 µg/cm2 [2] [%]	pest or weed control at 33 µg/cm2 (Wild Oats (Avena fatua) [3]) [%]	pest or weed control at 33 µg/cm2 (Watergrass (Echinochloa) [4]) [%]	pest or weed control at 33 µg/cm2 [5] [%]	pest or weed control at 33 µg/cm2 [6] [%]	pest or weed control at 5000 µg/mL, 33 µg/cm2 [7] [%]	pest or weed control at 5000 µg/mL, 33 µg/cm2 [8] [%]	pest or weed control at 5000 µg/mL, 33 µg/cm2 (Wild Oats (Avena fatua) [9]) [%]	pest or weed control at 5000 µg/mL, 33 µg/cm2 (Watergrass (Echinochloa) [10]) [%]	pest or weed control at 5000 µg/mL, 33 µg/cm2 [11] [%]	pest or weed control at 5000 µg/mL, 33 µg/cm2 [12] [%]
CSc1nnc(CNc2c(C)cccc2C)o1 [Compound 24A, 2-(2,6-dimethylphenylaminomethyl)-5-methylthio-1,3,4-oxadiazole]	0	0	0	0	0	0	0	0	0	0	0	0
CSc1nnc(CN(C(=O)CCl)c2c(C)cccc2C)o1 [Compound 24B]	100	10	85	100	10	10	0	0	0	0	0	0
Cc1nnc(CNc2ccccc2C)[nH]1 [Compound 25A]	0	0	0	0	0	0	0	0	0	0	0	0
Cc1nnc(CN(C(=O)CCl)c2ccccc2C)[nH]1 [Compound 25B]	97	45	0	100	70	100	0	0	0	40	0	0
Cc1nnc(CN(C(=O)CCl)c2cccc(C(F)(F)F)c2)[nH]1 [Compound 26B]	0	10	0	65	0	10	0	0	0	0	0	0
Cc1nnc(CNc2ccc(Cl)c(Cl)c2)[nH]1 [Compound 27A]	0	0	0	0	0	0	0	0	0	0	0	0
Cc1nnc(CN(C(=O)CCl)c2ccc(Cl)c(Cl)c2)[nH]1 [Compound 27B]	0	0	0	0	0	0	0	0	0	0	0	0
